From the NIST ThermoML archive (doi:10.1016/j.jct.2015.07.005)
Values joined by “and” are separate entries in the source; they are usually repeats but may differ in a detail not shown here. Equal values may be shown once.

Conditions: Gas, Frequency=0.005 MHz, Spherical cavity resonance method

F/C=C/C(F)(F)F [trans-1,3,3,3-tetrafluoropropene]
Conditions	speed of sound
379.99 K, 452.13 kPa	166.16 m/s
379.99 K, 784.29 kPa	161.02 m/s
379.99 K, 784.34 kPa	161.02 m/s
379.99 K, 1195.5 kPa	154.18 m/s
379.99 K, 1195.6 kPa	154.18 m/s
379.99 K, 2008.2 kPa	138.61 m/s
380 K, 98.61 kPa	171.32 m/s
380 K, 98.63 kPa	171.32 m/s
380 K, 297.93 kPa	168.44 m/s
380 K, 452.13 kPa	166.16 m/s
380 K, 784.28 kPa	161.02 m/s
380 K, 1195.5 kPa	154.18 m/s
380 K, 1608.3 kPa	146.68 m/s
380 K, 2008.2 kPa	138.61 m/s
380 K, 2215.6 kPa	134.03 m/s
380 K, 2215.7 kPa	134.03 m/s
380 K, 2385.9 kPa	130 m/s
380 K, 2386 kPa	130 m/s
380 K, 2606.5 kPa	124.35 m/s
380 K, 2606.6 kPa	124.35 m/s
380.01 K, 2606.6 kPa	124.35 m/s
380.01 K, 2822.2 kPa	118.21 m/s
380.01 K, 2822.3 kPa	118.22 m/s
380.02 K, 2822.3 kPa	118.22 m/s
401.99 K, 98.41 kPa	176.35 m/s
401.99 K, 98.44 kPa	176.35 m/s
401.99 K, 98.45 kPa	176.35 m/s
401.99 K, 98.46 kPa	176.35 m/s
402 K, 98.39 kPa	176.35 m/s
402 K, 98.4 kPa	176.35 m/s
402 K, 98.42 kPa	176.35 m/s
402 K, 98.43 kPa	176.35 m/s
402 K, 98.44 kPa	176.35 m/s
402 K, 98.45 kPa	176.35 m/s
402 K, 98.46 kPa	176.35 m/s
402 K, 299.24 kPa	173.94 m/s
402 K, 299.25 kPa	173.94 m/s
402 K, 299.26 kPa	173.94 m/s
402 K, 503.14 kPa	171.43 m/s
402 K, 504.13 kPa	171.42 m/s
402 K, 504.78 kPa	171.41 m/s
402 K, 504.99 kPa	171.4 m/s
402 K, 505.27 kPa	171.4 m/s
402 K, 505.76 kPa	171.4 m/s
402 K, 505.81 kPa	171.4 m/s
402 K, 505.96 kPa	171.4 m/s
402 K, 506.02 kPa	171.4 m/s
402.01 K, 502.88 kPa	171.44 m/s
402.01 K, 503 kPa	171.43 m/s
402.01 K, 505.02 kPa	171.41 m/s
402.01 K, 793.53 kPa	167.78 m/s
402.01 K, 793.54 kPa	167.77 m/s and 167.77 m/s
402.01 K, 1189.8 kPa	162.56 m/s and 162.56 m/s
402.01 K, 1595.9 kPa	156.94 m/s
402.01 K, 1596 kPa	156.94 m/s
402.02 K, 1595.8 kPa	156.94 m/s and 156.94 m/s
402.02 K, 1595.9 kPa	156.94 m/s
402.02 K, 1596 kPa	156.94 m/s
402.02 K, 1596.1 kPa	156.94 m/s
402.02 K, 1596.2 kPa	156.94 m/s
402.02 K, 1596.3 kPa	156.94 m/s
402.02 K, 1996.4 kPa	151.09 m/s
402.03 K, 1996.4 kPa	151.09 m/s and 151.09 m/s
402.03 K, 2385.1 kPa	145.09 m/s
402.03 K, 2385.2 kPa	145.1 m/s and 145.1 m/s
402.04 K, 2832 kPa	137.75 m/s and 137.75 m/s
402.04 K, 2832.1 kPa	137.75 m/s and 137.75 m/s
419.97 K, 100.24 kPa	180.17 m/s
419.97 K, 100.26 kPa	180.17 m/s
419.97 K, 100.28 kPa	180.17 m/s
419.97 K, 298.93 kPa	178.09 m/s
419.98 K, 100.2 kPa	180.17 m/s
419.98 K, 100.21 kPa	180.17 m/s
419.98 K, 100.22 kPa	180.17 m/s
419.98 K, 100.23 kPa	180.17 m/s
419.98 K, 100.24 kPa	180.17 m/s
419.98 K, 100.25 kPa	180.17 m/s
419.98 K, 100.27 kPa	180.17 m/s
419.98 K, 100.28 kPa	180.17 m/s
419.98 K, 298.92 kPa	178.09 m/s
419.98 K, 298.93 kPa	178.09 m/s
419.98 K, 476.26 kPa	176.21 m/s
